The source of these data is patent US5474988A, “5-phenylpyrrolo-1,4-benzoxazine and 5-phenylpyrrolo-1,4-benzothiazine compounds, process and intermediates for their production and pharmaceutical compositions containing them” (Kali-Chemie Pharma GmbH, priority 1993, dated 1995).

The subject of one experiment is P.A.F.-induced aggregation of blood platelets. The experiment can be described thus: anti-P.A.F. action in vitro (P.A.F.-induced platelet aggregation). In kind it is cell-based. The note with it: Oryctolagus cuniculus, 10^-5 mole/liter, read-out: Anti-P.A.F. activity in vitro, % inhibition of the P.A.F.-induced aggregation of blood platelets from rabbit blood. From the text:
3. Determination of the anti-P.A.F. action in vitro.
P.A.F. (=Platelet Activating Factor=Platelet Aggregation Factor) is a phospholipid mediator which has a multiplicity of actions. The activation of blood platelet aggregation results in the induction of long-lasting bronchoconstrictions and hyperreactivity of the respiratory passages.
In this test, the effect of the test substances on platelet aggregation induced by addition of P.A.F. in a platelet suspension obtained from rabbit blood was investigated according to the method described by Mikashima et al. (Jap. J. Pharmacol. 44 (1987) 387-391).
A suspension of platelets obtained from rabbit blood was used which contains 4×10^9 platelets/ml in a modified Tyrode buffer solution (=Tyrode solution with the addition of 1.3 mM/l of CaCl2 and 2.5 g/l of gelatine) adjusted to pH 7.4. Tyrode solution is an aqueous solution containing, per liter, 136.9 mmole of NaCl, 2.68 mmole of KCl, 2.31 mmole of CaCl2, 1.0 mmole of MgCl2, 11.9 mmole of NaHCO3, 1.45 mmole of NaH2 PO4 and 5.55 mmole of glucose. The platelets were concentrated from 10 ml blood samples of three rabbits (New Zealand hybrids, body weight 3-4 kg) in each case. To accomplish this, the blood samples were treated with ethylenediaminetetraacetic acid and washed according to the method of Artley et al. (Brit. J. Haematol. 19 (1970), 7-17). A platelet-rich plasma was first separated by centrifugation (20 minutes at 400×g). The platelets were separated from the plasma by repeated centrifugation for 15 minutes at 1400×g.After the centrifugation, the blood platelets remaining in the sediment were resuspended in a Tyrode buffer solution (but without calcium). 0.4 mmole of lysine acetylsalicylate was then added, and the blood platelets were sedimented again after 15 minutes. The sediment was resuspended in the aforementioned modified Tyrode buffer solution, and the number of platelets in the suspension obtained was adjusted to the desired content.
A 40×10^-9 molar P.A.F. solution was employed as a reagent. This solution was prepared from a 1.8×10^-3 molar stock solution in chloroform. To do this, a 10 μl sample of the stock solution was evaporated to dryness and dissolved again in 180 μl of the modified Tyrode buffer solution, to which 0.25% of lipid-free bovine serum albumin had been added. 10^-5 molar working solutions were then prepared from this and stored frozen. Samples of these solutions were appropriately diluted for tests.
In order to carry out the test, 50 μl of the blood platelet suspension and 10 μl of a 40×10^-5 molar solution of the compound to be investigated were added to […] of the modified Tyrode buffer solution with stirring (1000 rpm) in an aggregation tube provided with a small magnetic stirrer. This corresponded to a final test substance concentration of 10^-5 mole/l. After a preincubation time of 90 seconds, 10 μl of the P.A.F. preparation were added. For 4-5 minutes, the aggregation occurring in the aggregation tube was measured by means of a computerized aggregometer.
The aggregation occurring in the test tubes containing only the platelet suspension is rated as 0%. The aggregation occurring in the test tubes containing platelet suspension and P.A.F. preparation, in which a P.A.F.-induced increase in platelet aggregation takes place, is rated as 100%. The aggregation still occurring after addition of the test substances is measured, and from this the inhibition of the P.A.F.-inducedincrease in aggregation which takes place is calculated in %.
Consider `Cc1c(-c2ccc(O)cc2)n2c3c(cccc13)OC(CCN1CCN(c3ccccn3)CC1)C2` (stereo not drawn) [Example 30], for which the inhibition at 10 µM stood at 69%.
Consider `Cc1ccc(N2CCN(CCC3Cn4c(-c5ccc(O)cc5)c(C)c5cccc(c54)O3)CC2)nc1` (stereo not drawn) [Example 31], for which the inhibition at 10 µM amounted to 52%.
Take `Cc1cccnc1N1CCN(CCC2Cn3c(-c4ccc(O)cc4)c(C)c4cccc(c43)O2)CC1` (stereo not drawn) [Example 32]: the inhibition at 10 µM was 79%.
Take `Cc1cccc(N2CCN(CCC3Cn4c(-c5ccc(O)cc5)c(C)c5cccc(c54)O3)CC2)n1` (stereo not drawn) [Example 33]: the inhibition at 10 µM is 43%.

For the next experiment, the target named is T1, 5-lipoxygenase (Homo sapiens, UniProt P09917).
T1 construct: the 5-LO activity in human whole blood; from tissue; host or cells: heparinized human whole blood
T1 sequence (P09917 1-674): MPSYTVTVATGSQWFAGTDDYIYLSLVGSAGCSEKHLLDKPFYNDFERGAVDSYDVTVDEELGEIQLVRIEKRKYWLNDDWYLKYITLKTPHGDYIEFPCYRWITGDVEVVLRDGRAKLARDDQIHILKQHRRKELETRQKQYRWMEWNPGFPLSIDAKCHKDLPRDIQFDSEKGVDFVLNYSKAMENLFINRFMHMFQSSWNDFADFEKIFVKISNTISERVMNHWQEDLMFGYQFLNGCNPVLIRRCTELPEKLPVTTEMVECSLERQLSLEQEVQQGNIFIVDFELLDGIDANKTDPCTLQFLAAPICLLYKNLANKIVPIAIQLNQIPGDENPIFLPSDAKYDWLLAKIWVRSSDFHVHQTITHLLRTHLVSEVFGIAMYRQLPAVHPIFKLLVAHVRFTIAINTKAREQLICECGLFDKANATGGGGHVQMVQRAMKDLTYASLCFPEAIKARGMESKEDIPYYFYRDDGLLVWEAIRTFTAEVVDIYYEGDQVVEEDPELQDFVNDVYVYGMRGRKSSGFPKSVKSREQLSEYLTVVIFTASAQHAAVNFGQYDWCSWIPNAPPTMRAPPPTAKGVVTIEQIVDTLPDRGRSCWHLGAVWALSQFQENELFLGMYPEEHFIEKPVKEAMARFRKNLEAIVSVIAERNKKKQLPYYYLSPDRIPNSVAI
Kind of experiment: 5-lipoxygenase inhibition in human blood (LTB4 formation). In kind it is cell-based. The note with it: 0.5 h; 10^-5 mole/liter; human whole blood, 37° C.; read-out: In vitro % inhibitory activity on LTB4 formation in human blood stimulated by calcimycin. The protocol: 4c. In vitro determination of 5-lipoxygenase inhibition in human blood.
The inhibitory activity of the test substances on the 5-LO activity in human whole blood taking place after stimulation by calcimycin is investigated according to the method described by P. Gresele et al. (Biochem. Biophys. Commun. 137 (1986), 334).
For carrying out the test, human blood is collected in sterile 50 ml test tubes which contain 10 units of heparin/ml of blood and incubated for 5-10 minutes at 37° C. Amounts of test substance, dissolved in 10 μl of dimethylformamide, are added to 2 ml samples of this blood such that a final concentration of test substance of 10 μmol/l is achieved in the samples. Only 10 μl of the solvent were added to control samples. The samples were then incubated for 10 minutes at 37° C. In order to stimulate LTB4 synthesis, an amount of calcimycin, dissolved in 200 μl of plasma, was added to the samples such that a calcimycin concentration of 60 μmol/l was achieved, and the samples were incubated for a further 30 minutes at 37° C. The reaction was then terminated by addition of 200 μl of an ethylene glycol tetraacetate solution (corresponding to an ethylene glycol acetate concentration in the sample of 100 mmol/l). The samples are kept in an ice-bath for 10 minutes and then centrifuged (5 minutes at 1000×g). The supernantant liquids, which contain the LTB4 formed during the reaction time, are each separated and, for precipitation of the proteins contained therein, mixed with 3 ml of acetone and kept for 45 minutes at 4° C. Then the samples are centrifuged again (5 minutes at 1500×g), the supernatant liquids are separated, and the content of LTB4 therein is determined in a known manner by means of an enzyme immunoassay (=EIA). From the measured LTB4 values, the inhibitory activity of the test substances in human whole blood was calculated in % inhibition of LTB4 synthesis in comparison to the control samples containing no test substance.
On to `Cc1cccnc1N1CCN(CCCC2Cn3c(-c4ccc(O)cc4)c(C)c4cccc(c43)O2)CC1` (stereo not drawn) [Example 41], for which the inhibition at 10 µM was 100%.

The next experiment concerns 5-lipoxygenase. Kind of experiment: inhibition of 5-lipoxygenase activity in polymorphonuclear rat leucocytes (LTB4 formation). In kind it is cell-based. As to conditions: 10^-5 mol/l; 22° C. An excerpt:
4. In vitro determination of 5-lipoxygenase inhibition. 4a. In vitro determination of inhibition of 5-lipoxygenase activity in polymorphonuclear rat leucocytes. Arachidonic acid contained in cell membranes is released after activiation of the polymorphonuclear leucocytes (=PMN). During the course of this, under the action of the enzyme 5-lipoxygenase (=5-LO) arachidonic acid metabolites are synthesized which can be converted to leucotriene B4 (=LTB4) by LTA4 hydrolase. LTB4 is a principal metabolite of the arachidonic acid metabolism taking place on activation of the enzyme 5-LO by the inflammatory stimulus in the cell membrane. In in vitro systems, this metabolite is secreted from PMNs. […] To accomplish this, the content of LTB4 in a culture medium of rat peritoneal PMNs was determined after stimulation by calcimycin (=calcium-ionophore A23187) such as described by […] et al., Can. J. Physiol. Pharmacol. 67 (1989), 17. A cell suspension containing peritoneal PMNs of male Sprague-Dawley rats (body weight 200 to 250 g) was obtained in a known manner as follows: 6 ml of a solution containing 27.9 g/l of sodium thioglycolate were injected i.p. into the animals in order to induce the PMN invasion due to this inflammatory stimulus. After 22 hours, the animals were sacrificed by means of lethal ether anaesthesia. 20 ml of a Hank's salt solution (=Hank's Balanced Salt Solution=HBSS), but without Ca^++ and Mg^++ ions and with 0.2% by weight of sodium citrate, were then injected into the abdominal cavity. The suspension of accumulated cells was removed from the abdominal cavity and the cells were separated by centrifugation (10 minutes at 400×g). The cells were purified by repeated centrifugation in the presence of Ficoll-Paque®, (=metrizoic acid preparation, […], manufacturer Pharmacia), then washed twice with HBSS containing Ca^++ and Mg^++ ions and resuspended in HBSS containing Ca^ ++ and Mg^++ ions and buffered with 10 mM HEPES (=hydroxyethylpiperazinoethanesulfonic acid). In order to carry out the tests, samples of 0.7 ml of the PMN suspension (=0.5×10^6 cells) in each case were incubated for 15 minutes at 22° C. in plastic tubes containing 10 μM of the test substance in dimethylformamide or, as a control experiment, only containing dimethylformamide. The LTB4 synthesis was initiated in the samples by addition of calcimycin (final concentration 5 μm), and the samples were incubated for 10 minutes at 22° C. Only solvent was added to blank control samples. After 10 minutes, the reaction was terminated by addition of 0.3 ml of cold methanol. The samples were kept for 1 hour at 4° C. and then centrifuged (5 minutes at 10,000×g). The supernatant liquid was investigated to determine its LTB4 content by means of reverse phase high-pressure liquid chromatography (=reverse phase HPLC). […] The LTB4 was identified by comparison with authentic standard solutions eluting at the same time and determined at a wavelength of 270 nm. The LTB4 contents are determined from comparison with calibrated standard solutions, and from this the inhibitory activity of the test substances was calculated in % inhibition of the LTB4 synthesis in comparison with the control samples containing no test substance.
On to `Cc1c(-c2ccc(O)cc2)n2c3c(cccc13)OC(CCN1CCN(c3ccccn3)CC1)C2` (stereo not drawn) [Example 30], for which the “In vitro inhibitory activity on LTB4 formation in rat PMNs stimulated by calcium ionophore A23187” value stood at 100%.
As for `Cc1ccc(N2CCN(CCC3Cn4c(-c5ccc(O)cc5)c(C)c5cccc(c54)O3)CC2)nc1` (stereo not drawn) [Example 31], the “In vitro inhibitory activity on LTB4 formation in rat PMNs stimulated by calcium ionophore A23187” value stood at 81%.
For `Cc1cccnc1N1CCN(CCC2Cn3c(-c4ccc(O)cc4)c(C)c4cccc(c43)O2)CC1` (stereo not drawn) [Example 32], the “In vitro inhibitory activity on LTB4 formation in rat PMNs stimulated by calcium ionophore A23187” value is 98%.
Consider `Cc1cccc(N2CCN(CCC3Cn4c(-c5ccc(O)cc5)c(C)c5cccc(c54)O3)CC2)n1` (stereo not drawn) [Example 33], for which the “In vitro inhibitory activity on LTB4 formation in rat PMNs stimulated by calcium ionophore A23187” value came to 90%.
As for `Cc1cccnc1N1CCN(CCCC2Cn3c(-c4ccc(O)cc4)c(C)c4cccc(c43)O2)CC1` (stereo not drawn) [Example 41], the “In vitro inhibitory activity on LTB4 formation in rat PMNs stimulated by calcium ionophore A23187” value is 84%.

The next experiment concerns cutaneous histamine induced anaphylactoid reactions. Kind of experiment: inhibition of the anaphylactoid cutaneous reaction induced by histamine. In kind it is in vivo, Sprague-Dawley rats. The note with it: Rattus norvegicus, po, 0.5 h; 2 × 10^-5 mole/kg p.o., one hour before histamine; assessed 30 minutes after provocation; read-out: Inhibitory action against cutaneous histamine induced anaphylactoid reactions in rats, % inhibition. As for the experimental part: 1. Determination of the inhibition of the anaphylactoid cutaneous reaction induced by histamine.
The inhibition of the anaphylactoid cutaneous reaction induced by histamine was determined in Sprague-Dawley rats having body weights of 150-180 g.
In order to determine the histamine-induced anaphylactoid skin reaction, 50 μl of a physiological saline solution containing 0.8 mg/ml of histamine were injected into the animals intradermally on one flank. Immediately afterward, a solution of 26.4 mg/kg of a blue dye (Evan's Blue) was administered i.v. to the animals.
The test substances were dissolved in distilled water which contains 1% by volume of dimethylformamide and 1% by volume of Tween®20 (=polyoxyethylene(20) sorbitan monolaurate). One hour before the histamine injection, each animal received 2×10^-5 mol/kg of test substance, in each case administered orally in 0.5 ml of solution. A control group received only the solvent for comparison.
The histamine-induced anaphylactoid reactions which manifested themselves by edema formation, swelling and exudation of blue dye are assessed 30 minutes after provocation by the histamine injection. This is carried out by visual determination of the extent of the exudation of blue dye at the sites of edema formation. With the aid of comparison scales, the percentage inhibition of the anaphylactoid reactions produced by the test substances is determined in comparison with the reactions of the control animals not treated with test substance.
The results obtained with compounds of the formula I by the above test method are reproduced in the following table A. The example numbers given as identifiers for the compounds of formula I refer to the subsequent preparative examples.
As to `Cc1c(-c2ccc(O)cc2)n2c3c(cccc13)OC(CCN1CCN(c3ccccn3)CC1)C2` (stereo not drawn) [Example 30], the inhibition in vivo at 20 µmol/kg is 47%.
`Cc1ccc(N2CCN(CCC3Cn4c(-c5ccc(O)cc5)c(C)c5cccc(c54)O3)CC2)nc1` (stereo not drawn) [Example 31]: the inhibition in vivo at 20 µmol/kg is 58%.
The same measure, in the same setting: as for `Cc1cccnc1N1CCN(CCC2Cn3c(-c4ccc(O)cc4)c(C)c4cccc(c43)O2)CC1` (stereo not drawn) [Example 32], the figure is 57%; as for `Cc1cccc(N2CCN(CCC3Cn4c(-c5ccc(O)cc5)c(C)c5cccc(c54)O3)CC2)n1` (stereo not drawn) [Example 33], 39%.
As for `Cc1cccnc1N1CCN(CCCC2Cn3c(-c4ccc(O)cc4)c(C)c4cccc(c43)O2)CC1` (stereo not drawn) [Example 41], the inhibition in vivo at 20 µmol/kg was 60%.
